The assay has as its system T1, Trichosporon cutaneum phenylalanine ammonia lyase (TcPAL).
T1 construct: gene PAL; extra bands at 67 and 31 kDa; 79 kDa monomer; PAL typically homotetramer
Nature of the assay: continuous spectrophotometric assay of trans-cinnamic acid at […] nm. Type of assay: biochemical, Cutaneotrichosporon cutaneum. Particulars: 10 mM Tris-HCl pH 8.0, 30 °C; trial 1 of 3 (the trial quoted in abstract).

We go through one compound from publication PMC3789393, “Purification and Characterization of Phenylalanine Ammonia Lyase from Trichosporon cutaneum” (Enzyme Research, 2013).

Consider `N[C@@H](Cc1ccccc1)C(=O)O` [Phe], for which the Michaelis-Menten constant (Km) (commonly the substrate concentration at which the rate is half of its maximum) was 5 ± 1.1 mM.
